ChEMBL document CHEMBL1151020, “Synthesis of neoeudistomin analogsAs potential filaricides” (1995)

Test system: Rattus norvegicus
Assay: Antifilarial (Microfilariae) activity (mf) against Acanthocheilonema viteae in Mastomys natalensis at a dose of 350 mg/kg for 5 days by ip administration
Format: functional
Conditions: route intraperitoneal

| Structure (SMILES) | Activity |
| --- | --- |
| CCN(CC)C(=O)N1CCN(C)CC1.O=C(O)CC(O)(CC(=O)O)C(=O)O [DIETHYLCARBAMAZINE CITRATE] | >90 |

Test system: not listed separately
Assay: Macrofilaricidal activity (maf) against Acanthocheilonema viteae in Mastomys natalensis at a dose of 30 mg/kg for 5 days by ip administration; Inactive
Format: functional
Conditions: route intraperitoneal

| Structure (SMILES) | Activity |
| --- | --- |
| c1coc(-c2nccc3c2[nH]c2ccccc23)c1 | 0 |
| c1c[nH]c(-c2nccc3c2[nH]c2ccccc23)c1 | 0 |
| c1csc(-c2nccc3c2[nH]c2ccccc23)c1 | 0 |
| CCN(CC)C(=O)N1CCN(C)CC1.O=C(O)CC(O)(CC(=O)O)C(=O)O [DIETHYLCARBAMAZINE CITRATE] | 0 |

Test system: Rattus norvegicus
Assay: Antifilarial (Microfilariae) activity (mf) against Litomosoides carinii in cotton rats at a dose of 30 mg/kg for 5 days by ip administration
Format: functional
Conditions: route intraperitoneal

| Structure (SMILES) | Activity |
| --- | --- |
| c1c[nH]c(-c2nccc3c2[nH]c2ccccc23)c1 | 73 |

Test system: not listed separately
Assay: Macrofilaricidal activity (maf) against Litomosoides carinii in cotton rats at a dose of 30 mg/kg for 5 days by ip administration; Inactive
Format: functional
Conditions: route intraperitoneal

| Structure (SMILES) | Activity |
| --- | --- |
| c1csc(C2NCCc3c2[nH]c2ccccc32)c1 (stereo unspecified) | 0 |
| c1coc(C2NCCc3c2[nH]c2ccccc32)c1 (stereo unspecified) | 0 |
| c1ccc2c3c([nH]c2c1)C(c1ccsc1)NCC3 (stereo unspecified) | 0 |
| c1csc(-c2nccc3c2[nH]c2ccccc23)c1 | 0 |
| CCN(CC)C(=O)N1CCN(C)CC1.O=C(O)CC(O)(CC(=O)O)C(=O)O [DIETHYLCARBAMAZINE CITRATE] | 0 |

Test system: not listed separately
Assay: Antifilarial (Microfilariae) activity (mf) against Litomosoides carinii in cotton rats at a dose of 30 mg/kg for 5 days by ip administration; Inactive
Format: functional
Conditions: route intraperitoneal

| Structure (SMILES) | Activity |
| --- | --- |
| c1coc(-c2nccc3c2[nH]c2ccccc23)c1 | 0 |
| c1csc(C2NCCc3c2[nH]c2ccccc32)c1 (stereo unspecified) | 0 |
| c1coc(C2NCCc3c2[nH]c2ccccc32)c1 (stereo unspecified) | 0 |
| c1ccc2c3c([nH]c2c1)C(c1ccsc1)NCC3 (stereo unspecified) | 0 |
| c1csc(-c2nccc3c2[nH]c2ccccc23)c1 | 0 |
